Patent publication US20090069300A1, “ISOQUINOLINYL AND ISOINDOLINYL DERIVATIVES AS HISTAMINE-3 ANTAGONISTS” (Wyeth, priority 2007, published 2009)
Where a name gives a salt, the structure may show the parent alone.

Work on `COCCNC(=O)c1ccc(-c2ccc3c(c2)CCN(CCN2CCCC2)C3=O)cc1` (as salt: hydrochloride) [Example 69, N-(2-methoxyethyl)-4-[1-oxo-2-(2-pyrrolidin-1-ylethyl)-1,2,3,4-tetrahydroisoquinolin-6-yl]benzamide] yielded a melting point of 178 to 180 °C.

In the case of `COC[C@@H]1CCCN1C(=O)c1ccc(-c2ccc3c(c2)CCN(CCN2CCCC2)C3=O)cc1` (as salt: hydrochloride) [Example 128, 6-(4-{[(2S)-2-(methoxymethyl)pyrrolidin-1-yl]carbonyl}phenyl)-2-(2-pyrrolidin-1-ylethyl)-3,4-dihydroisoquinolin-1(2H)-one], the melting point is reported as 193 to 195 °C.

In the case of `C[C@@H]1CCCN1CCN1CCc2cc(C(=O)NC3Cc4ccccc4C3)ccc2C1=O` (as salt: hydrochloride) [Example 148, N-(2,3-dihydro-1H-inden-2-yl)-2-{2-[(2R)-2-methylpyrrolidin-1-yl]ethyl}-1-oxo-1,2,3,4-tetrahydroisoquinoline-6-carboxamide], the melting point is reported as 145 to 146 °C.

In the case of `O=C1c2ccc(-c3ccc(F)c(F)c3)cc2CCN1CCN1CCCC1` (as salt: hydrochloride) [Example 17, 6-(3,4-difluorophenyl)-2-(2-pyrrolidin-1-ylethyl)-3,4-dihydroisoquinolin-1(2H)-one], the melting point is reported as 179 to 180 °C.

`O=C1c2ccc(-c3ccc4c(c3)OCO4)cc2CCN1CCN1CCCC1` (as salt: hydrochloride) [Example 21, 6-(1,3-benzodioxol-5-yl)-2-(2-pyrrolidin-1-ylethyl)-3,4-dihydroisoquinolin-1(2H)-one] gave a melting point of 249 to 251 °C.

Molecule `CCN(CC)C(=O)c1ccc(-c2ccc3c(c2)CCN(CCN2CCCC2)C3=O)cc1` (as salt: hydrochloride) [Example 62, N,N-diethyl-4-[1-oxo-2-(2-pyrrolidin-1-ylethyl)-1,2,3,4-tetrahydroisoquinolin-6-yl]benzamide] has a melting point of 177 to 178 °C.

Work on `CC(C)NC(=O)c1ccc(-c2ccc3c(c2)C(=O)N(CCN2CCC[C@H]2C)CC3)cc1` (as salt: hydrochloride) [Example 85, N-isopropyl-4-(2-{2-[(2R)-2-methylpyrrolidin-1-yl]ethyl}-1-oxo-1,2,3,4-tetrahydroiso-quinolin-7-yl)benzamide] yielded a melting point of 248 to 250 °C.

Work on `O=C(c1ccc(-c2ccc3c(c2)CCN(CCN2CCCC2)C3=O)cc1)N1CCCCC1` (as salt: hydrochloride) [Example 79, 6-[4-(piperidin-1-ylcarbonyl)phenyl]-2-(2-pyrrolidin-1-ylethyl)-3,4-dihydroisoquinolin-1(2H)-one] yielded a melting point of 240 to 241 °C.

Work on `CN(C)C(=O)c1ccc(-c2ccc3c(c2)CCN(CCN2CCCC2)C3=O)c(F)c1` (as salt: hydrochloride) [Example 137, 3-fluoro-N,N-dimethyl-4-[1-oxo-2-(2-pyrrolidin-1-ylethyl)-1,2,3,4-tetrahydroisoquinolin-6-yl]benzamide] yielded a melting point of 228 to 229 °C.

Work on `CCCNC(=O)c1ccc(-c2ccc3c(c2)CCN(CCN2CCCC2)C3=O)cc1` (as salt: hydrochloride) yielded a melting point of 240 to 241 °C.

With `C[C@@H]1CCCN1CCN1CCc2cc(-c3ccc(C(=O)NC4CC4)cc3)ccc2C1=O` (as salt: hydrochloride) [Example 76, N-cyclopropyl-4-(2-{2-[(2R)-2-methylpyrrolidin-1-yl]ethyl}-1-oxo-1,2,3,4-tetrahydroisoquinolin-6-yl)benzamide] the melting point was 255 to 257 °C.

Molecule `COC[C@H](C)NC(=O)c1ccc(-c2ccc3c(c2)CCN(CCN2CCCC2)C3=O)cc1` (as salt: hydrochloride) [Example 126, N-[(1S)-2-methoxy-1-methylethyl]-4-[1-oxo-2-(2-pyrrolidin-1-ylethyl)-1,2,3,4-tetrahydroisoquinolin-6-yl]benzamide] has a melting point of 232 to 233 °C.

For `O=C1c2ccc(-c3cc(F)cc(F)c3)cc2CCN1CCN1CCCC1` (as salt: hydrochloride) [Example 10, 6-(3,5-difluorophenyl)-2-(2-pyrrolidin-1-ylethyl)-3,4-dihydroisoquinolin-1(2H)-one], the melting point was 196 to 198 °C.

`NC(=O)c1ccc(-c2ccc3c(c2)CCN(CCN2CCCC2)C3=O)cc1` (as salt: hydrochloride) [Example 67, 4-[1-oxo-2-(2-pyrrolidin-1-ylethyl)-1,2,3,4-tetrahydroisoquinolin-6-yl]benzamide] gave a melting point of 268 to 270 °C.

`CN1CCc2cc(-c3ccc4c(c3)CCN(CCN3CCCC3)C4=O)ccc2C1=O` (as salt: hydrochloride) [Example 158, 2-methyl-2′-(2-(pyrrolidin-1-yl)ethyl)-3,3′,4,4′-tetrahydro-6,6′-biisoquinoline-1,1′(2H,2′H)-dione hydrochloride] showed a melting point of 225 to 226 °C.

With `C[C@@H]1CCCN1CCN1CCc2cc(C(=O)NC3CCCCC3)ccc2C1=O` (as salt: hydrochloride) [Example 147, N-cyclohexyl-2-{2-[(2R)-2-methylpyrrolidin-1-yl]ethyl}-1-oxo-1,2,3,4-tetrahydroisoquinoline-6-carboxamide] the melting point was 140 to 141 °C.

Work on `N#Cc1ccc(Oc2ccc3c(c2)CCN(CCN2CCCC2)C3=O)nc1` (as salt: hydrochloride) [Example 47, 6-{[1-oxo-2-(2-pyrrolidin-1-ylethyl)-1,2,3,4-tetrahydroisoquinolin-6-yl]oxy}nicotinonitrile] yielded a melting point of 189 to 190 °C.

`Fc1ccc(-c2ccc3c(c2)CCN(CCN2CCCC2)C3)cc1` [Example 177] showed a melting point of 250 to 251 °C.

`O=C(NC1CCC1)c1ccc(-c2ccc3c(c2)CCN(CCN2CCCC2)C3=O)cc1` (as salt: hydrochloride) [Example 63, N-cyclobutyl-4-[1-oxo-2-(2-pyrrolidin-1-ylethyl)-1,2,3,4-tetrahydroisoquinolin-6-yl]benzamide] showed a melting point of 255 to 258 °C.

Work on `O=C(c1ccc(-c2ccc3c(c2)CCN(CCN2CCCC2)C3)cc1)N1CCCCC1` (as salt: hydrochloride) [Example 185, 6-[4-(piperidin-1-ylcarbonyl)phenyl]-2-(2-pyrrolidin-1-ylethyl)-1,2,3,4-tetrahydroisoquinoline] yielded a melting point of 270 to 272 °C.

Work on `O=C1c2ccc(-c3cccc(C(F)(F)F)c3)cc2CCN1CCN1CCCC1` (as salt: hydrochloride) [Example 20, 2-(2-pyrrolidin-1-ylethyl)-6-[3-(trifluoromethyl)phenyl]-3,4-dihydroisoquinolin-1(2H)-one] yielded a melting point of 138 to 139 °C.

In the case of `CNC(=O)c1ccc(-c2ccc3c(c2)CCN(CCN2CCCC2)C3=O)c(F)c1` (as salt: hydrochloride) [Example 139, 3-fluoro-N-methyl-4-[1-oxo-2-(2-pyrrolidin-1-ylethyl)-1,2,3,4-tetrahydroisoquinolin-6-yl]benzaimde], the melting point is reported as 188 to 190 °C.

Molecule `CNC(=O)c1ccc(-c2ccc3c(c2)CCN(CCCN2CCCC2)C3=O)cc1` (as salt: hydrochloride) [Example 141, N-methyl-4-[1-oxo-2-(3-pyrrolidin-1-ylpropyl)-1,2,3,4-tetrahydroisoquinolin-6-yl]benzamide] has a melting point of 158 to 159 °C.

In the case of `C[C@@H]1CCCN1CCN1CCc2cc(C(=O)N3CCCC3)ccc2C1=O` (as salt: hydrochloride) [Example 151, 2-{2-[(2R)-2-methylpyrrolidin-1-yl]ethyl}-6-(pyrrolidin-1-ylcarbonyl)-3,4-dihydroisoquinolin-1(2H)-one], the melting point is reported as 166 to 167 °C.
